Converted amounts (≈) assume the structure as drawn. Counter-ions that a name gives are not always drawn. Like-named read-outs stand apart in the source and are kept apart here.
How the values were obtained:
Test in all cases: Antibacterial activities, MIC
Type in all cases: cell-based
Staph. aureus 209-P = tested on: Staph. aureus 209-P
Escher. coli NIHJ = tested on: Escher. coli NIHJ
Ser. marcescens ES-75 = tested on: Ser. marcescens ES-75
Kleb Pneumoniae EK-6 = tested on: Kleb Pneumoniae EK-6
Pseud. aeruginosa EP-01 = tested on: Pseud. aeruginosa EP-01
Morg. morganii EP-14 = tested on: Morg. morganii EP-14
[1] = Staphylococcus aureus, read-out: MIC
[2] = Escherichia coli, read-out: MIC
[3] = Serratia marcescens, ES75, read-out: MIC
[4] = Pseudomonas aeruginosa, EP01, Pseud. aeruginosa EP-01, read-out: MIC
[5] = Morganella morganii, EP14, Morg. morganii EP-14, read-out: MIC

SMILES | MIC (Staph. aureus 209-P; [1]) [µg/mL] | MIC (Escher. coli NIHJ; [2]) [µg/mL] | MIC (Ser. marcescens ES-75; [3]) [µg/mL] | MIC (Kleb Pneumoniae EK-6; read-out: MIC) [µg/mL] | MIC (Pseud. aeruginosa EP-01; [4]) [µg/mL] | MIC (Morg. morganii EP-14; [5]) [µg/mL] | MIC (Staph. aureus 209-P) [µg/mL] | MIC (Escher. coli NIHJ) [µg/mL] | MIC (Ser. marcescens ES-75) [µg/mL] | MIC (Kleb Pneumoniae EK-6) [µg/mL] | MIC (Pseud. aeruginosa EP-01; Pseud. aeruginosa EP-01) [µg/mL] | MIC (Morg. morganii EP-14; Morg. morganii EP-14) [µg/mL]
CO/N=C(\C(=O)N[C@@H]1C(=O)N2C(C(=O)[O-])=C(/C=C/C[N+]3(C)CCCN3C)CS[C@H]12)c1nsc(N)n1 (single isomer, unassigned) [Example 30-A, 7β-[2-(5-Amino-1,2,4-thiadiazol-3-yl)-(Z)-2-methoxyiminoacetamido]-3-[(E)-(1,2-dimethyl-1-pirazolydinio)-1-propen-1-yl]-3-cephem-4-carboxylate] | 0.1 (≈ 0.191 µM) | ≤ 0.025 | 0.05 (≈ 0.0957 µM) | ≤ 0.025 | 0.4 (≈ 0.765 µM) | ≤ 0.025 |  |  |  |  |  | 
CO/N=C(\C(=O)N[C@@H]1C(=O)N2C(C(=O)[O-])=C(/C=C/C[N+]3(C)CCCN3C)CS[C@H]12)c1nsc(N)n1 (single isomer, unassigned) [Example 30-B, 7β-[2-(5-Amino-1,2,4-thiadiazol-3-yl)-(Z)-2-methoxyiminoacetamido]-3-[(E)-(1,2-dimethyl-1-pirazolydinio)-1-propen-1-yl]-3-cephem-4-carboxylate] |  |  |  |  |  |  | 0.1 (≈ 0.191 µM) | ≤ 0.025 | 0.05 (≈ 0.0957 µM) | ≤ 0.025 | 0.8 (≈ 1.53 µM) | 0.05 (≈ 0.0957 µM)
CO/N=C(\C(=O)N[C@@H]1C(=O)N2C(C(=O)[O-])=C(/C=C/C[N+]3(C)CC=CC3)CS[C@H]12)c1nsc(N)n1 [Example 2, 7β-[2-(5-Amino-1,2,4-thiadiazol-3-yl)-(Z)-2-methoxyiminoacetamido]-3-[(E)-3-(1-methyl-3-pyrrolinio)-1-propene-1-yl)-3-cephem-4-carboxylate] | 0.2 (≈ 0.396 µM) | 0.05 (≈ 0.0989 µM) | 0.1 (≈ 0.198 µM) | ≤ 0.025 | 1.56 (≈ 3.09 µM) | 0.05 (≈ 0.0989 µM) |  |  |  |  |  | 
CO/N=C(\C(=O)N[C@@H]1C(=O)N2C(C(=O)[O-])=C(/C=C/C[N+]3(C)CCC[C@H]3CO)CS[C@H]12)c1nsc(N)n1 (stereo partly drawn) [Example 3, 7β-[2-(5-Amino-1,2,4-thiadiazol-3-yl)-(Z)-2-methoxyiminoacetamido]-3-[(E)-3-((2S)-2-hydroxymethyl-1-methylpyrrolidinio)-1-propen-1-yl]-3-cephem-4-carboxylate] | 0.2 (≈ 0.372 µM) | 0.05 (≈ 0.093 µM) | 0.1 (≈ 0.186 µM) | ≤ 0.025 | 1.56 (≈ 2.9 µM) | 0.05 (≈ 0.093 µM) |  |  |  |  |  | 
CO/N=C(\C(=O)N[C@@H]1C(=O)N2C(C(=O)[O-])=C(/C=C/C[N+]34CCC(C(N)=O)(CC3)CC4)CS[C@H]12)c1nsc(N)n1 [Example 4, 7β-[2-(5-Amino-1,2,4-thiadiazol-3-yl)-(Z)-2-methoxyiminoacetamido]-3-[(E)-3-(4-carbamoylquinuclidinio)-1-propen-1-yl]-3-cephem-4-carboxylate] | 0.4 (≈ 0.694 µM) | 0.05 (≈ 0.0867 µM) | 0.1 (≈ 0.173 µM) | ≤ 0.025 | 1.56 (≈ 2.71 µM) | 0.05 (≈ 0.0867 µM) |  |  |  |  |  | 
CO/N=C(\C(=O)N[C@@H]1C(=O)N2C(C(=O)[O-])=C(/C=C/C[N+]3(C)CCNCC3)CS[C@H]12)c1nsc(N)n1 [Example 5, 7β-[(2-(5-Amino-1,2,4-thiadiazol-3-yl)-(Z)-2-methoxyiminoacetamido]-3-[(E)-3-(1-methyl-1-piperadinio)-1-propen-1-yl]-3-cephem-4-carboxylate trifluoroacetate] | 0.2 | 0.05 | 0.1 | ≤ 0.025 | 0.8 | 0.1 |  |  |  |  |  | 
CC[N+](CC)(C/C=C/C1=C(C(=O)[O-])N2C(=O)[C@@H](NC(=O)/C(=N\OC)c3nsc(N)n3)[C@H]2SC1)CC(N)=O [Example 11, 7β-[2-(5-Amino-1,2,4-thiadiazol-3-yl)-(Z)-2-methoxyiminoacetamido]-3-[(E)-3-(carbamoylmethyldiethylammonio)-1-propen-1-yl]-3-cephem-4-carboxylate] | 0.2 (≈ 0.362 µM) | 0.05 (≈ 0.0905 µM) | 0.1 (≈ 0.181 µM) | ≤ 0.025 | 1.56 (≈ 2.82 µM) | 0.05 (≈ 0.0905 µM) |  |  |  |  |  | 
CO/N=C(\C(=O)N[C@@H]1C(=O)N2C(C(=O)[O-])=C(/C=C/C[N+](C)(C)CCN(C)C)CS[C@H]12)c1nsc(N)n1 [Example 12, 7β-[2-(5-Amino-1,2,4-thiadiazol-3-yl)-(Z)-2-methoxyiminoacetamido]-3-[(E)-3-(2-dimethylaminoethyldimethylammonio)-1-propen-1-yl]-3-cephem-4-carboxylate] | 0.4 (≈ 0.743 µM) | 0.05 (≈ 0.0928 µM) | 0.1 (≈ 0.186 µM) | 0.05 (≈ 0.0928 µM) | 1.56 (≈ 2.9 µM) | 0.1 (≈ 0.186 µM) |  |  |  |  |  | 
CO/N=C(\C(=O)N[C@@H]1C(=O)N2C(C(=O)[O-])=C(/C=C/C[n+]3ccc4n3CCOC4)CS[C@H]12)c1nsc(N)n1 [Example 14, 7β-[2-(5-Amino-1,2,4-thiadiazol-3-yl)-(Z)-2-methoxyiminoacetamido]-3-[(E)-(1-morpholino[4,3-b]pyrazolio)-1-propen-1-yl]-3-cephem-4-carboxylate] | 0.2 (≈ 0.366 µM) | ≤ 0.025 | 0.05 (≈ 0.0915 µM) | ≤ 0.025 | 1.56 (≈ 2.85 µM) | 0.05 (≈ 0.0915 µM) |  |  |  |  |  | 
CCO/N=C(\C(=O)N[C@@H]1C(=O)N2C(C(=O)[O-])=C(/C=C/C[N+](C)(C)CC(N)=O)CS[C@H]12)c1nsc(N)n1 [Example 15, 7β-[2-(5-Amino-1,2,4-thiadiazol-3-yl)-(Z)-2-ethoxyiminoacetamido]-3-[(E)-3-(carbamoylmethyldimethylammonio)-1-propen-1-yl]-3-cephem-4-carboxylate] | 0.2 (≈ 0.371 µM) | 0.1 (≈ 0.186 µM) | 0.2 (≈ 0.371 µM) | 0.05 (≈ 0.0928 µM) | 1.56 (≈ 2.9 µM) | 0.05 (≈ 0.0928 µM) |  |  |  |  |  | 
CO/N=C(\C(=O)N[C@@H]1C(=O)N2C(C(=O)[O-])=C(/C=C/C[N+](C)(C)CC(C)=O)CS[C@H]12)c1nsc(N)n1 [Example 17, 7β-[2-(5-Amino-1,2,4-thiadiazol-3-yl)-(Z)-2-methoxyiminoacetamido]-3-[(E)-3-(2-oxopropyldimethylammonio)-1-propen-1-yl]-3-cephem-4-carboxylate] | 0.4 (≈ 0.764 µM) | 0.05 (≈ 0.0955 µM) | 0.1 (≈ 0.191 µM) | 0.05 (≈ 0.0955 µM) | 1.56 (≈ 2.98 µM) | 0.1 (≈ 0.191 µM) |  |  |  |  |  | 
CO/N=C(\C(=O)N[C@@H]1C(=O)N2C(C(=O)[O-])=C(/C=C/C[N+](C)(C)CCO)CS[C@H]12)c1nsc(N)n1 [Example 18-A, 7β-[2-(5-Amino-1,2,4-thiadiazol-3-yl)-(Z)-2-methoxyiminoacetamido]-3-[(E)-3-(2-hydroxyethyldimethylammonio)-1-propen-1-yl]-3-cephem-4-carboxylate] | 0.2 (≈ 0.391 µM) | ≤ 0.025 | 0.1 (≈ 0.195 µM) | ≤ 0.025 | 0.8 (≈ 1.56 µM) | 0.05 (≈ 0.0977 µM) |  |  |  |  |  | 
CO/N=C(\C(=O)N[C@@H]1C(=O)N2C(C(=O)[O-])=C(/C=C/C[N+](C)(C)Cc3ncon3)CS[C@H]12)c1nsc(N)n1 [Example 21] | 0.2 (≈ 0.364 µM) | ≤ 0.025 | 0.05 (≈ 0.091 µM) | ≤ 0.025 | 1.56 (≈ 2.84 µM) | ≤ 0.025 |  |  |  |  |  | 
CO/N=C(\C(=O)N[C@@H]1C(=O)N2C(C(=O)[O-])=C(/C=C/C[N+](C)(C)Cc3cnc[nH]3)CS[C@H]12)c1nsc(N)n1 [Example 22] | 0.2 (≈ 0.365 µM) | 0.05 (≈ 0.0913 µM) | 0.1 (≈ 0.183 µM) | 0.05 (≈ 0.0913 µM) | 1.56 (≈ 2.85 µM) | 0.05 (≈ 0.0913 µM) |  |  |  |  |  | 
CO/N=C(\C(=O)N[C@@H]1C(=O)N2C(C(=O)[O-])=C(/C=C/C[N+](C)(C)Cc3cscn3)CS[C@H]12)c1nsc(N)n1 [Example 23, 7β-[2-(5-Amino-1,2,4-thiadiazol-3-yl)-(Z)-2-methoxyiminoacetamido]-3-[(E)-3[(thiazol-4-yl)methyldimethylammonio]-1-propen-1-yl]-3-cephem-4-carboxylate] | 0.2 (≈ 0.354 µM) | ≤ 0.025 | 0.05 (≈ 0.0885 µM) | ≤ 0.025 | 3.13 (≈ 5.54 µM) | ≤ 0.025 |  |  |  |  |  | 
CO/N=C(\C(=O)N[C@@H]1C(=O)N2C(C(=O)[O-])=C(/C=C/C[N+](C)(C)Cc3cc[nH]n3)CS[C@H]12)c1nsc(N)n1 [Example 24, 7β-[2-(5-Amino-1,2,4-thiadiazol-3-yl)-(Z)-2-methoxyiminoacetamido]-3-[(E)-3-[(pyrazol-3-yl)methyldimethylammonio]-1-propen-1-yl]-3-cephem-4-carboxylate] | 0.2 (≈ 0.365 µM) | ≤ 0.025 | 0.1 (≈ 0.183 µM) | ≤ 0.025 | 3.13 (≈ 5.72 µM) | 0.05 (≈ 0.0913 µM) |  |  |  |  |  | 
CO/N=C(\C(=O)N[C@@H]1C(=O)N2C(C(=O)[O-])=C(/C=C/C[N+](C)(C)Cc3csc(N)n3)CS[C@H]12)c1nsc(N)n1 [Example 25] | 0.2 (≈ 0.345 µM) | ≤ 0.025 | 0.03 (≈ 0.0518 µM) | 0.03 (≈ 0.0518 µM) | 3.13 (≈ 5.4 µM) | 0.05 (≈ 0.0863 µM) |  |  |  |  |  | 
CO/N=C(\C(=O)N[C@@H]1C(=O)N2C(C(=O)[O-])=C(/C=C/C[N+](C)(C)Cc3ccoc3)CS[C@H]12)c1nsc(N)n1 [Example 26, 7β-[2-(5-Amino-1,2,4-thiadiazol-3-yl)-(Z)-2-methoxyiminoacetamido]-3-[(E)-3-[(furan-3-yl)-methyldimethylammonio]-1-propen-1-yl]-3-cephem-4-carboxylate] | 0.2 (≈ 0.365 µM) | ≤ 0.025 | 0.05 (≈ 0.0913 µM) | ≤ 0.025 | 3.13 (≈ 5.72 µM) | ≤ 0.025 |  |  |  |  |  | 
CO/N=C(\C(=O)N[C@@H]1C(=O)N2C(C(=O)[O-])=C(/C=C/C[N+]3(C)CCN(S(N)(=O)=O)CC3)CS[C@H]12)c1nsc(N)n1 [Example 27, 7β-[2-(5-Amino-1,2,4-thiadiazol-3-yl)-(Z)-2-methoxyiminoacetamido]-3-[(E)-3-(1-methyl-4-sulfamoyl-1-piperazinio)-1-propen-1-yl]-3-cephem-4-carboxylate] | 0.2 (≈ 0.332 µM) | ≤ 0.025 | 0.1 (≈ 0.166 µM) | ≤ 0.025 | 0.8 (≈ 1.33 µM) | 0.05 (≈ 0.0831 µM) |  |  |  |  |  | 
CO/N=C(\C(=O)N[C@@H]1C(=O)N2C(C(=O)[O-])=C(/C=C/C[N+]3(CC(N)=O)CC[C@@H](O)C3)CS[C@H]12)c1nsc(N)n1 (some centres unmarked) [Example 45-2] |  |  |  |  |  |  | 0.4 (≈ 0.706 µM) | 0.05 (≈ 0.0882 µM) |  | ≤ 0.025 | 0.8 (≈ 1.41 µM) | ≤ 0.025
